From patent US20230087196A1, “Application of circIKBKB Inhibitors and Test Reagents thereof in Diagnosis, Treatment and Prognosis Kits for Breast Cancer Bone Metastasis” (SUN YAT-SEN UNIVERSITY CANCER CENTER, priority 2021, published 2023)

What was measured:
[1] = tested on: SCP2 cells; experiment: In vivo bone metastasis prevention model: SCP2 cells into left ventricle of nude mice, eIF4A3-IN-2 intragastric from the second day; conditions: 1 mg/kg intragastric from the second day after SCP2 injection, vs vehicle
Protocol: Experiment 2: SCP2 cells were injected into the left ventricle of nude mice (1*10^6 cells/mouse), and eIF4A3-IN-2 (1 mg/kg) was administered to the mice by intragastric administration from the second day. The mice were sacrificed after 60 days, and hindlimbs of the mice were taken for μCT analysis, H&E and TRAP staining.

[2] = tested on: SCP2 cells; experiment: In vivo established bone metastasis model: SCP2 cells into left ventricle of nude mice, eIF4A3-IN-2 started when bone-metastatic tumors formed; conditions: 1 mg/kg intragastric, started when BLI signal reached 2×10^7 p/sec/cm^2/sr, after 5 weeks treatment, vs vehicle
Protocol: Experiment 3: SCP2 cells were injected into the left ventricle of nude mice (1*10^6 cells/mouse). eIF4A3-IN-2 (1 mg/kg) treatment via intragastric administration was started when bioluminescence signal of bone-metastatic tumors reached 2×10^7 p/sec/cm^2/sr. The mice were sacrificed after 60 days, and the hindlimbs of the mice were taken for μCT analysis, H&E and TRAP staining.

O=C(c1cnn2cc(Br)ccc12)N1CCN(C(=O)c2ccc(Br)cc2)[C@@H](c2ccc(Cl)cc2)C1 [eIF4A3-IN-2]
number of TRAP+-osteoclasts in bone surface area [1]: less
onsets of bone-metastases and bone-metastasis burden [1]: significantly delayed
osteolytic areas [1]: less
bone-metastatic tumor burden [2]: decreased
onsets of bone metastases [2]: dramatically reduced
